Key:
[1] = tested on: estrogenic response of estradiol; experiment: Antiestrogenic Test, immature rats (uterine weight); format: in vivo
Protocol: (§1) This test was conducted with immature 40-45 g. female rats, immature 11-13 g. mice, and adult ovariectomized mice. The rats were tested in groups of six, and mice in groups of ten. All of the laboratory animals were from standardized strains and were equilibrated to the laboratory before the test started. Each test was begun by administering the test compound daily for three days, as a subcutaneous injection or by oral gavage, as indicated below in the reports of individual experiments.
(§2) The test animals were treated for three days and sacrificed on the fourth day, and the uteri were removed, freed of extraneous tissue, and blotted with paper towels. The uteri were weighed to the nearest 0.1 mg.
(§3) The uterine weights are given, in mg., as the means of all of the organ weights of the animals in a group. Compounds are referred to by their example numbers above.
(§4) The same standardized types of laboratory animals which were used in the experiments described above were also used in these experiments. […] Untreated control animals were used in each experiment. […] The dosage and sacrifice schedule, and the method of determining uterine weights and reporting data, were the same as the methods described above under Test 1.

[2] = tested on: estrogenic response; experiment: Estrogenic Response Test, immature mice (uterine weight); format: in vivo, immature 11-13 g. mice; conditions: Experiment D, s.c.
Protocol: (§5) The first test reported below is used to determine the estrogenic potency of compounds. It is well known that many compounds having antiestrogenic activity also, typically, have estrogenic activity. As has been explained, estrogenic activity is a liability in an antiestrogen, and thus it is important to identify antiestrogens having a minimum amount of estrogenic activity. This test was conducted with immature 40-45 g. female rats, immature 11-13 g. mice, and adult ovariectomized mice. The rats were tested in groups of six, and mice in groups of ten. All of the laboratory animals were from standardized strains and were equilibrated to the laboratory before the test started. Each test was begun by administering the test compound daily for three days, as a subcutaneous injection or by oral gavage, as indicated below in the reports of individual experiments. Untreated control animals were included in each experiment, along with animals to which estradiol was administered subcutaneously. The estradiol-treated animals provided positive controls, showing the physiological effect of a potent estrogen on the individual group of animals used in the experiment. […] The test animals were treated for three days and sacrificed on the fourth day, and the uteri were removed, freed of extraneous tissue, and blotted with paper towels. The uteri were weighed to the nearest 0.1 mg. The tables below report the results of representative experiments. The doses of estradiol and of the compound of this invention are given as the total of the three daily doses. The uterine weights are given, in mg., as the means of all of the organ weights of the animals in a group. Compounds are referred to by their example numbers above.

[3] = tested on: estrogenic response of estradiol; experiment: Antiestrogenic Test, mature ovariectomized mice (uterine weight); format: in vivo, adult ovariectomized mice; conditions: Experiment A, s.c. + estradiol 0.3 mcg.
Protocol: as §1, §2, §3, §4

[4] = tested on: estrogenic response; experiment: Estrogenic Response Test, mature ovariectomized mice (uterine weight); format: in vivo, adult ovariectomized mice; conditions: Experiment E, s.c.
Protocol: as §5

[5] = tested on: estrogenic response of estradiol; experiment: Antiestrogenic Test, immature mice (uterine weight); format: in vivo; conditions: Experiment B, s.c. + estradiol 0.3 mcg.
Protocol: as §1, §2, §3, §4

[6] = tested on: estrogenic response; experiment: Estrogenic Response Test, immature rats (uterine weight); format: in vivo, immature 40-45 g. female rats
Protocol: as §5

[7] = tested on: androgen-stimulated prostate growth; experiment: Anti-Androgen Test, immature male rats (ventral prostate weight); format: in vivo
Protocol: The animals used in this test were adult male rats having a body weight which averaged about 330 g. when the experiment ended. All of the animals to be used in the experiment were castrated by the scrotal route, and were held untreated for 3 days. On the fourth day, subcutaneous administration of 0.1 mg./day of an exogenous androgen, testosterone propionate, was begun, and was continued for seven consecutive days. An untreated control group of animals received injections of 0.1 ml./day of corn oil as a blank treatment. The compound of this invention was administered orally or subcutaneously to the treated animals in 0.1 ml. of corn oil, at the same time that the androgen was administered. The animals were sacrificed 24 hours after the last injection of testosterone propionate, the ventral prostate glands were removed and weighed, and the mean of the weights of each treatment group was reported.
This experiment was carried out in the same manner as Experiment A above, except that the test animals were immature male rats, weighing about 120 g. each at sacrifice. Each treatment group consisted of six or seven animals. All treatments in this experiment were administered by subcutaneous injection. The amount of the androgen administered was only 20 mcg./day because of the small size of the animals.
This experiment was also conducted in immature rats having average body weight of about 115 g. when the experiment ended. In other respects, the experiment was as described under Experiment B above. The treatment groups consisted of ten animals each, except for the androgen only group, of 16 animals, and the 5 mg./kg. group, of nine animals.

Q: For O=C(c1ccc(OCCN2CCCCC2)cc1)c1c(-c2ccc(O)cc2)sc2cc(O)ccc12 [Example 3, 6-hydroxy-2-(4-hydroxyphenyl)-3-[4-(2-piperidinoethoxy)benzoyl]benzo[b]thiophene], which Uterine weight ([1]; Experiment C, 3 mg., oral + estradiol 0.3 mcg., s.c.) is on record?
A: 30.6 mg

Q: And the Uterine weight ([1]; Experiment C, 3 mcg., oral + estradiol 0.3 mcg., s.c.)?
A: 55.0 mg

Q: And the Uterine weight ([1]; Experiment C, 30 mcg., oral + estradiol 0.3 mcg., s.c.)?
A: 46.7 mg

Q: What about the Uterine weight ([1]; Experiment C, 300 mcg., oral + estradiol 0.3 mcg., s.c.) of the same compound?
A: 31.3 mg

Q: And the Uterine weight ([1]; Experiment D, 3 mg., s.c. + estradiol 0.3 mcg.)?
A: 28.0 mg

Q: What about the Uterine weight ([1]; Experiment D, 3 mcg., s.c. + estradiol 0.3 mcg.) of the same compound?
A: 53.6 mg

Q: What about the Uterine weight ([1]; Experiment D, 30 mcg., s.c. + estradiol 0.3 mcg.) of the same compound?
A: 33.7 mg

Q: What about the Uterine weight ([1]; Experiment D, 300 mcg., s.c. + estradiol 0.3 mcg.) of the same compound?
A: 30.7 mg

Q: What about the Uterine weight ([1]; Experiment E, 3 mg., s.c. + estradiol 0.09 mcg.) of the same compound?
A: 31.0 mg

Q: What about the Uterine weight ([1]; Experiment E, 3 mcg., s.c. + estradiol 0.09 mcg.) of the same compound?
A: 42.5 mg

Q: What about the Uterine weight ([1]; Experiment E, 30 mcg., s.c. + estradiol 0.09 mcg.) of the same compound?
A: 35.8 mg

Q: And the Uterine weight ([1]; Experiment E, 300 mcg., s.c. + estradiol 0.09 mcg.)?
A: 33.7 mg

Q: What about the Uterine weight ([1]; Experiment F, 3 mg., s.c. + estradiol 0.15 mcg.) of the same compound?
A: 36.2 mg

Q: And the Uterine weight ([1]; Experiment F, 3 mcg., s.c. + estradiol 0.15 mcg.)?
A: 49.4 mg

Q: And the Uterine weight ([1]; Experiment F, 30 mcg., s.c. + estradiol 0.15 mcg.)?
A: 40.9 mg

Q: What about the Uterine weight ([1]; Experiment F, 300 mcg., s.c. + estradiol 0.15 mcg.) of the same compound?
A: 36.5 mg

Q: What about the Uterine weight ([1]; Experiment G, 3 mg., s.c. + estradiol 3 mcg.) of the same compound?
A: 30.2 mg

Q: And the Uterine weight ([1]; Experiment G, 3 mcg., s.c. + estradiol 3 mcg.)?
A: 71.9 mg

Q: And the Uterine weight ([1]; Experiment G, 30 mcg., s.c. + estradiol 3 mcg.)?
A: 42.2 mg

Q: And the Uterine weight ([1]; Experiment G, 300 mcg., s.c. + estradiol 3 mcg.)?
A: 33.7 mg

Q: And the Uterine weight ([1]; Experiment H, 3 mg., s.c. + estradiol 30 mcg.)?
A: 33.1 mg

Q: What about the Uterine weight ([1]; Experiment H, 3 mcg., s.c. + estradiol 30 mcg.) of the same compound?
A: 92.7 mg

Q: And the Uterine weight ([1]; Experiment H, 30 mcg., s.c. + estradiol 30 mcg.)?
A: 60.2 mg

Q: And the Uterine weight ([1]; Experiment H, 300 mcg., s.c. + estradiol 30 mcg.)?
A: 48.9 mg

Q: What about the “Uterine weight” value ([2]; total dose 3 mg.) of the same compound?
A: 14.6 mg

Q: What about the “Uterine weight” value ([2]; total dose 0.03 mcg.) of the same compound?
A: 19.0 mg

Q: What about the “Uterine weight” value ([2]; total dose 0.3 mcg.) of the same compound?
A: 19.3 mg

Q: And the “Uterine weight” value ([2]; total dose 3 mcg.)?
A: 22.9 mg

Q: And the “Uterine weight” value ([2]; total dose 30 mcg.)?
A: 23.9 mg

Q: And the “Uterine weight” value ([2]; total dose 300 mcg.)?
A: 19.3 mg

Q: What about the Uterine weight ([3]; 3 mg.) of the same compound?
A: 21.3 mg

Q: What about the Uterine weight ([3]; 0.3 mcg.) of the same compound?
A: 54.9 mg

Q: And the Uterine weight ([3]; 3 mcg.)?
A: 48.7 mg

Q: What about the Uterine weight ([3]; 30 mcg.) of the same compound?
A: 31.1 mg

Q: What about the Uterine weight ([3]; 300 mcg.) of the same compound?
A: 22.1 mg

Q: What about the “Uterine weight” value ([4]; total dose 3 mg.) of the same compound?
A: 23.1 mg

Q: What about the “Uterine weight” value ([4]; total dose 0.3 mcg.) of the same compound?
A: 18.2 mg

Q: What about the “Uterine weight” value ([4]; total dose 3 mcg.) of the same compound?
A: 25.6 mg

Q: And the “Uterine weight” value ([4]; total dose 30 mcg.)?
A: 26.2 mg

Q: What about the “Uterine weight” value ([4]; total dose 300 mcg.) of the same compound?
A: 24.8 mg

Q: What about the Uterine weight ([5]; 3 mg.) of the same compound?
A: 13.9 mg

Q: And the Uterine weight ([5]; 0.03 mcg.)?
A: 41.3 mg

Q: And the Uterine weight ([5]; 0.3 mcg.)?
A: 40.6 mg

Q: What about the Uterine weight ([5]; 3 mcg.) of the same compound?
A: 26.5 mg

Q: And the Uterine weight ([5]; 30 mcg.)?
A: 18.9 mg

Q: And the Uterine weight ([5]; 300 mcg.)?
A: 14.6 mg

Q: And the “Uterine weight” value ([6]; Experiment A, total dose 3 mg., s.c.)?
A: 33.9 mg

Q: And the “Uterine weight” value ([6]; Experiment A, total dose 3 mcg., s.c.)?
A: 47.7 mg

Q: What about the “Uterine weight” value ([6]; Experiment A, total dose 30 mcg., s.c.) of the same compound?
A: 38.4 mg

Q: What about the “Uterine weight” value ([6]; Experiment A, total dose 300 mcg., s.c.) of the same compound?
A: 35.9 mg

Q: What about the “Uterine weight” value ([6]; Experiment B, total dose 3 mcg., oral (first line)) of the same compound?
A: 34.5 mg

Q: And the “Uterine weight” value ([6]; Experiment B, total dose 30 mcg., oral)?
A: 34.4 mg

Q: And the “Uterine weight” value ([6]; Experiment B, total dose 300 mcg., oral)?
A: 33.2 mg

Q: And the “Uterine weight” value ([6]; Experiment B, total dose printed 3 mcg., oral (last line))?
A: 34.4 mg

Q: What about the “Mean Prostate Weight” value ([7]; Experiment B, 0.5 mg./kg./day s.c. + androgen 20 mcg./day) of the same compound?
A: 33.8 mg

Q: And the “average prostate weight, one animal excluded” value ([7]; Experiment B, 0.5 mg./kg./day s.c. + androgen, animal with 54 mg. prostate excluded)?
A: 30.5

Q: And the “Mean Prostate Weight” value ([7]; Experiment B, 5 mg./kg./day s.c. + androgen 20 mcg./day)?
A: 36.6 mg

Q: What about the “Mean Prostate Weight” value ([7]; Experiment C, 0.05 mg./kg./day s.c. + androgen) of the same compound?
A: 34.0 mg

Q: And the “Mean Prostate Weight” value ([7]; Experiment C, 0.5 mg./kg./day s.c. + androgen)?
A: 31.1 mg

Q: What about the “Mean Prostate Weight” value ([7]; Experiment C, 5 mg./kg./day s.c. + androgen) of the same compound?
A: 29.0 mg

— patent US4418068A, “Antiestrogenic and antiandrugenic benzothiophenes” (Eli Lilly and Company, priority 1981, dated 1983)
